Four compounds from patent US9156840B2, “D2 antagonists, methods of synthesis and methods of use” (ALTOS THERAPEUTICS, LLC, priority 2010, dated 2015) can be followed below.

SMILES strings stand for the structures. Where a name gives a salt, the structure may show the parent alone.

This assay deals with T1, human D2 receptor (Homo sapiens, UniProt P14416).
T1 construct: expressed in transfected cells; cDNA from Origene clones TC308892 and SC123573
The experiment in a line: D2 receptor radioligand binding assay (membranes of HEK-293 cells expressing human D2 receptor). The following applies: radioligand displacement, HEK293 membranes, 37° C. for 120 minutes; read-out: Affinity Score (IC50 values for D2 on a scale of 1 through 5). In short, it runs like this:
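Membranes from HEK-293 cells stably expressing human D2S or D2L, 10 μg protein per well. Compounds incubated with radioligand (KD 0.09 nM) in Tris buffer pH 7.4 with 0.025% BSA, 120 minutes at 37° C. Filtration and scintillation counting; Ki by Cheng–Prusoff.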
(In general: Displacement assays read how much labelled ligand stays bound in the presence of the test substance.)

T1 sequence (P14416 whole entry): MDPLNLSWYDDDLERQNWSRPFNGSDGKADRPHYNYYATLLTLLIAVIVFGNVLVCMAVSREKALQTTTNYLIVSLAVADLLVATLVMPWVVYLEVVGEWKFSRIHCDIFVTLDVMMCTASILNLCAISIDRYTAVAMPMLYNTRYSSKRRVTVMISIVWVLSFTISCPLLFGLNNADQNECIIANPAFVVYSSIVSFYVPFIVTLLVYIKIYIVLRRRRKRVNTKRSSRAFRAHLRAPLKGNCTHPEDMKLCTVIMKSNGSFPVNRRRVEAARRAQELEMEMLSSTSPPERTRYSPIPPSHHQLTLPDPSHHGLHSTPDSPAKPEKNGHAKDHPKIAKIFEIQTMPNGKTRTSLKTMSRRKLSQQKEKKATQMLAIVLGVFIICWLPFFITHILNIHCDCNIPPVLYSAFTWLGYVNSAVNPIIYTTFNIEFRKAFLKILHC

With `CS(=O)(=O)Nc1ccc(N2CN(c3ccccc3)C3(CCN(CCCN4C(=O)Cc5ccccc54)CC3)C2=O)cc1` [Compound 215, N-(4-(4-oxo-8-(3-(2-oxoindolin-1-yl)propyl)-1-phenyl-1,3,8-triazaspiro[4.5]decan-3-yl)phenyl)methanesulfonamide], the IC50 was less than 0.01 µM.

`CS(=O)(=O)Nc1ccc(N2CN(c3ccccc3)C3(CCN(CCCN4C(=O)C5(CC5)c5ccccc54)CC3)C2=O)cc1` [Compound 216, N-(4-(4-Oxo-8-(3-(2′-oxospiro[cyclopropane-1,3′-indoline]-1′-yl)propyl)-1-phenyl-1,3,8-triazaspiro[4.5]decan-3-yl)phenyl)methanesulfonamide]: the IC50 was less than 0.01 µM.

Turning to `CC1(C)C(=O)N(CCCN2CCC3(CC2)C(=O)N(c2ccc(NS(C)(=O)=O)cc2)CN3c2ccccc2)c2ccccc21` [Compound 217, N-(4-(8-(3-(3,3-Dimethyl-2-oxoindolin-1-yl)propyl)-4-oxo-1-phenyl-1,3,8-triazaspiro[4.5]decan-3-yl)phenyl)methanesulfonamide], the IC50 was less than 0.01 µM.

As to `O=C(CCCN1CCC2(CC1)C(=O)N(Cc1ccccc1C(=O)O)CN2C1CCCCC1)c1ccccc1` [Compound 218, 2-((1-Cyclohexyl-4-oxo-8-(4-oxo-4-phenylbutyl)-1,3,8-triazaspiro[4.5]decan-3-yl)methyl)benzoic acid, hydrochloride], the IC50 is less than 0.01 µM.

By IC50 is commonly meant the point on the concentration scale where inhibition reaches its midpoint.
